In patent US11124847B1, “Systems and methods for assessing perturbations in cellular differentiation using reporter cell lines” (priority 2017, dated 2021):

System: hNPC
Experiment: Immunofluorescence staining and high-content cell analysis of differentiation markers in hNPCs differentiated after 24 hour neurotoxin treatment
Assay type: cell-based, human
Conditions: for level of GFAP (glial marker): hNPC treated 24 hours
Excerpt: In an example, high-content cell analysis from cells grown in each well in a 96-well plate was sufficient to detect multiple markers via antibody staining and to be normalized to the DAPI signal, a common baseline measure of DNA content. […] In this example, hNPC are indicated by NESTIN (NES) and SRY-Box 2 (SOX2). Glial Fibrillary Acidic Protein (GFAP) is used as a marker of glial cells (both astrocytes and radial glia), and the neuron-specific class III β-tubulin (TUJ1) is used to indicate neurons. Expression of both GFAP and TUJ1 increased at 21 days and 50 days following differentiation, while both SOX2 and NES decreased at 21 days. Levels of SOX2 expression returned to baseline following 50 days.
A broad range of doses for each toxin was selected to determine the dose response and capture the full range to which a developing human brain may be exposed. Cultured hNPC's were treated for 24 hours to avoid complications associated with non-specific toxicity that may occur with chronic treatment, and because we were interested in whether early, acute exposure produces long-term effects detectable in our assay.

With `CC(C)(c1ccc(O)cc1)c1ccc(O)cc1` [BPA, bisphenol A] the “level of GFAP (glial marker)” value (21D time point, low to moderate doses) was “increase” and the “level of GFAP (glial marker)” value (50D time point, low to moderate doses) was “increase”.

In the case of `C[N+]([O-])=NCO` [MAM, methylazoxymethanol], the “level of GFAP (glial marker)” value (21D time point, increasing doses, vs DMSO control) is reported as “striking increase”, the “level of GFAP (glial marker)” value (50D time point, vs DMSO control) is reported as “general decrease” and the “hNPC markers (NESTIN and SOX2)” value (24 hours, across doses) is reported as “clear dose-dependent increase”. For the same compound, the “hNPC-GLIA population (markers of hNPC and glial cells)” value (21 days, across increasing doses) was “significant increase”, the “neuronal population (NEURON)” value (21 days, as a function of increasing dose) was “striking decrease” and the “hNPC-GLIA population (markers of hNPC and glial cells)” value (50 days) was “decreased”. The “neuronal population (NEURON)” value (50 days) was “increased”.

In the case of `CCCC(CCC)C(=O)O` [VPA, valproic acid], the “level of GFAP (glial marker)” value (across differentiation time points, compared with MAM and BPA) is reported as “more modest effects”.
